In patent publication US20250115615A1, “Solid Forms of 3-(5-Fluorobenzofuran-3-yl)-4-(5-methyl-5H-[1,3]dioxolo[4,5-f]indol-7-yl)pyrrole-2,5-dione” (Actuate Therapeutics Inc., priority 2017, published 2025):
Values after ≈ are worked out from the molar mass of the structure shown. Values belong to the molecule of their own block, whether it stands above or below them.

What was measured:
Format in all cases: physicochemical
[1] = Solubility study, 24 hour (HPLC of filtrate, XRPD of remaining solids); details: for solubility at 24 h: thermodynamic from solid
Procedure: 9-ING-41, either Form I or Form II, was added to 1 mL of each of 10 different solvents in a vial to make a suspension. The samples were shaken at 2000 rpm in a shaker at room temperature for 24 hours. Mixtures were visually examined to ensure saturation. After 24 hours, 1 mL of suspension was filtered through a 0.45 um nylon micro-filtration membrane into another clear glass vial, respectively. The filtrate was analyzed by HPLC and the remaining solids were analyzed using XRPD.

[2] = Solubility study, 1 hour (Form II added to Form I-saturated filtrates); details: for Crystal form of remaining solids (XRPD): 1 hour; for solubility at 1 h / solubility at 24 h: thermodynamic from solid; for solubility at 1 h: excess Form II added to Form I-saturated filtrate, shaken 1 hour; for solubility at 24 h: Form I suspension shaken 24 hours, room temperature
Procedure: Step 1: A sufficient amount of Form I was added to 1 mL solvent (EtOH, Labrasol, Benzyl Benzoate, Benzyl Alcohol, PEG400: Tween80: EtOH (75:8:17) and PEG300:BzOH: Water (65:10:25)) to make a suspension. The samples were shaken at 2000 rpm in a shaker at room temperature for 24 hours.
Step 2: The vials were visually examined to ensure saturation. 1 mL of suspension was filtered at 24 hours through a 0.45 μm nylon micro-filtration membrane into another clean clear glass vial. The filtrate was analyzed by HPLC.
Step 3: Excess Form II was added to the 6 residual filtrates from Step 2 to make a suspension, respectively. The samples were shaken at 2000 rpm in a shaker for 1 hour. The suspensions were filtered after 1 hour through a 0.45 μm nylon micro-filtration membrane into another clean glass vial. The filtrate was analyzed by HPLC and the remaining solids were analyzed using XRPD.

[3] = Solubility in sesame oil (visual estimate); details: for visual result: 24 hours, room temperature; for Estimated solubility: sesame oil, stirred 24 hours at room temperature, visual examination
Procedure: The solubility of 9-ING-41 in sesame oil cannot be measured by HPLC. The solubility was estimated by adding weighed portions of Form I (or Form II) into sesame oil. The samples were stirred for 24 hours at room temperature and the vials were visually examined to ensure dissolution.

[4] = Mechanical and pressure effects on crystal form (XRPD)
Procedure: 10.0 mg of Form II was weighed into mortar and ground for 5 min. The remaining solid was collected and analyzed by XRPD. […] 4.50 mg of Form II was compressed into tablet. The tablet was then ground into powder and analyzed by XRPD.

[5] = organic solvent or mixture, PEG400:Tween80:EtOH (75:8:17)

Solubility ([1]; Benzyl Alcohol, room temperature): 30.553 mg/mL (≈ 75.6 mM) | Solubility ([1]; Benzyl Benzoate, room temperature): 73.265 mg/mL (≈ 181 mM) | Solubility ([1]; Dimethyl Acetamide, room temperature): >100 mg/mL | Solubility ([1]; EtOH, room temperature): 0.903 mg/mL (≈ 2.23 mM) | Solubility ([1]; Labrasol, room temperature): 68.455 mg/mL (≈ 169 mM) | Solubility ([1]; PEG300:BzOH:Water (65:10:25), room temperature): 9.410 mg/mL (≈ 23.3 mM) | Solubility ([1]; PEG400, room temperature): >100 mg/mL | Solubility ([1]; PEG400:Tween80:EtOH (75:8:17), room temperature): 90.418 mg/mL (≈ 224 mM) | Solubility ([1]; Water, room temperature): Not detected | Crystal form of remaining solids (XRPD) ([1]; ethanol experiment): the remaining solids were a solvate | Crystal form of remaining solids (XRPD) ([1]; the other experiments (not water, sesame oil, ethanol)): the solids appeared to be Form I | Crystal form of remaining solids (XRPD) ([1]; water and sesame oil experiments): the remaining solids were Form II | Crystal form of remaining solids (XRPD) ([2]; EtOH and PEG300:BzOH:Water (65:10:25)): did not change | Crystal form of remaining solids (XRPD) ([2]; Labrasol, Benzyl Benzoate, Benzyl Alcohol, PEG400:Tween80:EtOH (75:8:17)): rapidly converts to Form I | solubility at 1 h ([2]; filtrate saturated with Form I, aqueous with cosolvent or surfactant or cyclodextrin, PEG300:BzOH:Water (65:10:25)): 10.2 mg/mL (≈ 25.3 mM) | solubility at 1 h ([2]; filtrate saturated with Form I, oil or lipid, Labrasol): 87 mg/mL (≈ 215 mM) | solubility at 1 h ([2]; filtrate saturated with Form I, organic solvent or mixture, Benzyl Alcohol): 39.9 mg/mL (≈ 98.6 mM) | solubility at 1 h ([2]; filtrate saturated with Form I, organic solvent or mixture, Benzyl Benzoate): 71.8 mg/mL (≈ 178 mM) | solubility at 1 h ([2]; filtrate saturated with Form I, organic solvent or mixture, EtOH): 2.55 mg/mL (≈ 6.3 mM) | solubility at 1 h [2, 5]: 106 mg/mL (≈ 262 mM) | visual result ([3]; 0.90 mg in 1214.50 mg sesame oil): dissolution | visual result ([3]; 3.18 mg in 2638.01 mg sesame oil): Incomplete | Estimated solubility [3]: 0.741 to 1.21 µg/mg | Crystal form after compression (XRPD) ([4]; 4.50 mg compressed into tablet, then ground into powder): no effect on the crystalline form | Crystal form after grinding (XRPD) ([4]; 10.0 mg ground in mortar for 5 min): remained Form II
SMILES: Cn1cc(C2=C(c3coc4ccc(F)cc34)C(=O)NC2=O)c2cc3c(cc21)OCO3 [Form II, 3-(5-fluorobenzofuran-3-yl)-4-(5-methyl-5H-[1,3]dioxolo[4,5-f]indol-7-yl) pyrrole-2,5-dione]

solubility at 24 h ([1]; EtOH, organic solvent or mixture, room temperature): 1.27 mg/mL (≈ 3.15 mM) | solubility at 24 h ([1]; Labrasol, oil or lipid, room temperature): 60.5 mg/mL (≈ 150 mM) | solubility at 24 h ([1]; PEG300:BzOH:Water (65:10:25), aqueous with cosolvent or surfactant or cyclodextrin, PEG300:BzOH:Water (65:10:25), room temperature): 5.09 mg/mL (≈ 12.6 mM) | solubility at 24 h ([1]; PEG400, organic solvent or mixture, PEG400, room temperature): 96.5 mg/mL (≈ 239 mM) | solubility at 24 h ([1]; PEG400:Tween80:EtOH (75:8:17), organic solvent or mixture, PEG400:Tween80:EtOH (75:8:17), room temperature): 72.8 mg/mL (≈ 180 mM) | Solubility ([1]; Water, room temperature): Not detected | Crystal form of remaining solids (XRPD) ([1]; all experiments with Form I as starting material): remained Form I | solubility at 24 h ([1]; benzyl alcohol, organic solvent or mixture, room temperature): 24 mg/mL (≈ 59.5 mM) | solubility at 24 h ([1]; benzyl benzoate, organic solvent or mixture, room temperature): 53 mg/mL (≈ 131 mM) | solubility at 24 h ([1]; dimethyl acetamide, organic solvent or mixture, room temperature): > 100 mg/mL | solubility at 24 h ([2]; aqueous with cosolvent or surfactant or cyclodextrin, PEG300:BzOH:Water (65:10:25)): 4.96 mg/mL (≈ 12.3 mM) | solubility at 24 h ([2]; oil or lipid, Labrasol): 61.4 mg/mL (≈ 152 mM) | solubility at 24 h ([2]; organic solvent or mixture, Benzyl Alcohol): 22.3 mg/mL (≈ 55.2 mM) | solubility at 24 h ([2]; organic solvent or mixture, Benzyl Benzoate): 48.3 mg/mL (≈ 119 mM) | solubility at 24 h ([2]; organic solvent or mixture, EtOH): 1.26 mg/mL (≈ 3.11 mM) | solubility at 24 h [2, 5]: 73.4 mg/mL (≈ 182 mM) | visual result ([3]; 1.00 mg in 3464.12 mg sesame oil): Incomplete | visual result ([3]; 1.00 mg in 5997.92 mg sesame oil): dissolution | Estimated solubility [3]: 0.167 to 0.289 µg/mg
SMILES: Cn1cc(C2=C(c3coc4ccc(F)cc34)C(=O)NC2=O)c2cc3c(cc21)OCO3 [Form I]
